# Assay results from patent US12162888B2, “Carboxamides as ubiquitin-specific protease inhibitors” (Valo Early Discovery, Inc., priority 2018, dated 2024).
# Target: T1, USP25 (USP25-His6, Boston Biochem E-546) (Homo sapiens, UniProt Q9UHP3)
# T1 construct: His6 (C); purchased Boston Biochem E-546
# T1 sequence (Q9UHP3 1-1055): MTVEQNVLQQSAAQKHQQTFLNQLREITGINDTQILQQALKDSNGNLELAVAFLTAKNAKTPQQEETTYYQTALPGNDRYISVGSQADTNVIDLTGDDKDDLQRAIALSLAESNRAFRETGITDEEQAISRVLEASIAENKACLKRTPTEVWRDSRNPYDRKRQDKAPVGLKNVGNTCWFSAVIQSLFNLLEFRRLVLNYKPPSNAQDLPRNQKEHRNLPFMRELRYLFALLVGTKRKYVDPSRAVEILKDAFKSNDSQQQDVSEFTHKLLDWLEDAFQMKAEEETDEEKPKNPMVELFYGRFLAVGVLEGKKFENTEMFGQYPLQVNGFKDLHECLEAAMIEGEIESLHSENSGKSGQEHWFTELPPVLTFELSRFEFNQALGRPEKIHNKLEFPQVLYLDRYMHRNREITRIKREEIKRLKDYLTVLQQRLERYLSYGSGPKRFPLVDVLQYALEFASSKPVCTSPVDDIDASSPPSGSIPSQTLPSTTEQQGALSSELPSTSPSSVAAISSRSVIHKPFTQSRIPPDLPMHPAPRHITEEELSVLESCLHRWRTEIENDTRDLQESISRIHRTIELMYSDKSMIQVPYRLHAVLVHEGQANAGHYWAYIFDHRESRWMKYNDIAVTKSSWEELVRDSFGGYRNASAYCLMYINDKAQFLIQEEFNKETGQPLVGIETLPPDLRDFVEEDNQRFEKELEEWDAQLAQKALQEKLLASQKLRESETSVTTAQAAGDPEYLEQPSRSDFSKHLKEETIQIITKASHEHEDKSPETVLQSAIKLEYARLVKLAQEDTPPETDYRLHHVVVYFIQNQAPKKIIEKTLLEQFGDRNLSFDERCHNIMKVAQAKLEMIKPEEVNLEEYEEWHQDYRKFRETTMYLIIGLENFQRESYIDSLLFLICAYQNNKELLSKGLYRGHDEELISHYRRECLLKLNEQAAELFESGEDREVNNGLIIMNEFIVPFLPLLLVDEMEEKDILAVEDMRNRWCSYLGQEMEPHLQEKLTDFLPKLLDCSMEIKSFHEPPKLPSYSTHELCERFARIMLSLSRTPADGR
# Assay: Ubiquitin-Rhodamine 110 Assay for USP25 Activity, Example A-3
# Type: biochemical
# Conditions: Ubiquitin-Rhodamine 110 assay, Example A-3; IC50 ranges; read-out: USP25 A-3 IC50
# In short: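 USP25-His6 ([…] final as stated) preincubated 30 min with compound (10-point, 25 μM to 1.3 nM), then Ub-Rh110 at 25 nM (<<Km) added in pH 8.0 Tris buffer with BME, BGG and Triton X-100. Reaction stopped after 45 min at room temperature with 10 mM citric acid; fluorescence read at 485/535 nm.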
row,Structure (SMILES),IC50 [nM]
1,"N#Cc1c(N2CC3CCC(C2)N3)cc(F)c2c1OC[C@H](NC(=O)c1cnc3c(c1)[C@@H]1CC1CN3)C2 (stereo partly drawn) [Example 228, (6aS,7aR)-N-[(3R)-8-cyano-7-(3,8-diazabicyclo[3.2.1]octan-3-yl}-5-fluoro-3,4-dihydro-2H-1-benzopyran-3-yl]-5H,6H,6aH,7H,7aH-cyclopropa[c]1,8-naphthyridine-2-carboxamide]",200 to 2000

# Same assay, conditions: Ubiquitin-Rhodamine 110 assay, Example A-3; read-out: USP25 A-3 IC50 range
row,Structure (SMILES),IC50 [nM]
1,"Cc1ccc2c(N)c(C(=O)N[C@H]3COc4cc(N5CCNCC5)ccc4[C@@H]3C)sc2n1 (single isomer, unassigned) [Example 11-17]",> 2000
2,"Cc1cnc2c(N)c(C(=O)N[C@@H]3CCc4cc(N5CCNCC5)ccc4C3)sc2n1 (single isomer, unassigned) [Example 11-20]",> 2000
3,"Cc1ccc2c(N)c(C(=O)N[C@H]3COc4cc(N5CCNCC5)ccc4[C@@H]3C)sc2n1 (single isomer, unassigned) [Example 11-16]",> 2000
4,"CN[C@@H]1CCN(c2ccc3c(c2)CC[C@H](NC(=O)c2sc4nc(C)cnc4c2N)C3)C1 (single isomer, unassigned) [Example 11-27]",200 to 2000
5,"Cc1cnc2c(N)c(C(=O)N[C@H]3CCc4cc(N5CCNCC5)cc(F)c4C3)sc2n1 (single isomer, unassigned) [Example 11-38]",200 to 2000
6,"Cc1ccc2c(N)c(C(=O)N[C@H]3CCc4c(C#N)c(N5CC6CCC(C5)N6)cc(F)c4C3)sc2n1 (single isomer, unassigned) [Example 14-17]",1 to 50
7,"Cc1ccc2c(N)c(C(=O)N[C@H]3CCc4nc(N5C[C@@H](N)[C@]6(CCOC6)C5)ccc4C3)sc2n1 [Example 438, 3-amino-N-[(6S)-2-[(5S, 9S)-9-amino-2-oxa-7-azaspiro[4.4]nonan-7-yl]-5,6,7,8-tetrahydroquinolin-6-yl]-6-methylthieno[2,3-b]pyridine-2-carboxamide]",> 2000
8,"Cc1cnc2c(N)c(C(=O)N[C@@H]3CCc4cc(N5CCNCC5)c(F)cc4C3)sc2n1 (single isomer, unassigned) [Example 21-11]",> 2000
9,"Cc1cnc2c(N)c(C(=O)N[C@H]3CCc4c(ccc(N5CCNCC5)c4F)C3)sc2n1 (single isomer, unassigned) [Example 21-10]",> 2000
10,"CN[C@@H]1CCN(c2ccc3c(c2)CC[C@@H](NC(=O)c2sc4nc(C)cnc4c2N)C3)C1 (single isomer, unassigned) [Example 11-28]",> 2000
11,"Cc1ccc2c(N)c(C(=O)N[C@@H]3CCc4c(C#N)c(N5CC6CNCC(C5)O6)cc(F)c4C3)sc2n1 (single isomer, unassigned) [Example 14-16]",200 to 2000
12,"CCn1ccc2cc(C(=O)N[C@H]3CCc4nc(N5C[C@H](COC)[C@H](N)C5)ccc4C3)cnc21 (single isomer, unassigned) [Example 401]",> 2000
13,"Cc1ccc2c(N)c(C(=O)N[C@H]3CCc4c(F)c(N5CC6CCC(C5)N6)cc(F)c4C3)sc2n1 (single isomer, unassigned) [Example 22-5]",1 to 50
14,"Cc1cnc2c(N)c(C(=O)N[C@H]3CCc4c(C#N)c(N5CCNCC5)cc(F)c4C3)sc2n1 (single isomer, unassigned) [Example 14-12]",> 2000
15,"Cc1cnc2c(N)c(C(=O)N[C@H]3CCc4cc(N5CCNCC5)ccc4C3)sc2n1 (single isomer, unassigned) [Example 11-19]",200 to 2000
16,"Cc1ccc2c(N)c(C(=O)N[C@H]3COc4cc(N5C[C@H](N)[C@@]6(CCOC6)C5)ccc4C3)sc2n1 (single isomer, unassigned) [Example 439]",200 to 2000
17,"Cc1ccc2c(N)c(C(=O)N[C@H]3CCc4c(C#N)c(N5CCNCC5)cc(F)c4C3)sc2n1 (single isomer, unassigned) [Example 14-10]",200 to 2000
18,"CCn1ccc2cc(C(=O)N[C@H]3CCc4nc(N5C[C@@H](COC)[C@@H](N)C5)ccc4C3)cnc21 (single isomer, unassigned) [Example 400]",> 2000
19,CO[C@H]1CN(c2ccc3c(c2)OC[C@H](NC(=O)c2sc4nc(C)cnc4c2N)C3)C[C@@H]1N [Example 117],200 to 2000
20,"Cc1cnc2c(N)c(C(=O)N[C@@H]3CCc4cc(N5C[C@H]6C[C@@H]5CN6)ccc4C3)sc2n1 (single isomer, unassigned) [Example 11-32]",200 to 2000
21,"Cc1ccc2c(N)c(C(=O)N[C@H]3CCc4cc(N5CC6CNCC(C5)O6)cc(F)c4C3)sc2n1 (single isomer, unassigned) [Example 11-39]",> 2000
22,"Cc1cnc2c(N)c(C(=O)N[C@H]3CCc4cc(N5CCNCC5)c(F)cc4C3)sc2n1 (single isomer, unassigned) [Example 21-12]",200 to 2000
23,"Cc1ccc2c(N)c(C(=O)N[C@@H]3CCc4nc(N5C[C@H](CF)[C@H](N)C5)ncc4C3)sc2n1 [Example 446, 3-amino-N-[(6R)-2-[(3S,4S)-3-amino-4-(fluoromethyl)pyrrolidin-1-yl]-5,6,7,8-tetrahydroquinazolin-6-yl]-6-methylthieno[2,3-b]pyridine-2-carboxamide]",> 2000
24,"Cc1cnc2c(N)c(C(=O)N[C@@H]3CCc4cc(N5CCNCC5)cc(F)c4C3)sc2n1 (single isomer, unassigned) [Example 11-37]",> 2000
25,"Cc1nc2sc(C(=O)N[C@H]3CCc4c(C#N)c(N5CC6CCC(C5)N6)cc(F)c4C3)c(N)c2s1 (single isomer, unassigned) [Example 14-21]",50 to 200
26,"[2H]C1([2H])c2c(F)cc(N3CCNCC3)cc2OC[C@H]1NC(=O)c1sc2nc(C)ccc2c1N (single isomer, unassigned) [Example 33-2]",> 2000
27,"Cc1nc2sc(C(=O)N[C@@H]3CCc4c(C#N)c(N5CCNCC5)cc(F)c4C3)c(N)c2s1 (single isomer, unassigned) [Example 14-13]",> 2000
28,"Cc1ccc2c(N)c(C(=O)N[C@H]3CCc4c(C#N)c(N5CC6CNCC(C5)O6)cc(F)c4C3)sc2n1 (single isomer, unassigned) [Example 14-15]",1 to 50
29,"Cc1cnc2c(N)c(C(=O)N[C@@H]3CCc4c(ccc(N5CCNCC5)c4F)C3)sc2n1 (single isomer, unassigned) [Example 21-9]",200 to 2000

# Same assay, conditions: biochemical IC50 range, Ubiquitin-Rhodamine 110 assay, Example A-3; read-out: USP25 A-3
row,Structure (SMILES),IC50 [nM]
1,"CN[C@H]1CN(c2ccc3c(c2)OC[C@H](NC(=O)c2sc4nc(C)ccc4c2N)C3)C[C@@H]1CF [Example 662, 3-amino-N-[(3R)-7-[(3S,4R)-3-(fluoromethyl)-4-(methylamino)pyrrolidin-1-yl]-3,4-dihydro-2H-1-benzopyran-3-yl]-6-methylthieno[2,3-b]pyridine-2-carboxamide]",1 to 50
2,"O=C(N[C@H]1COc2cc(N3CCNCC3)ccc2C1)c1ccc(NCc2cccc3cn[nH]c23)nc1 [Example 698, 6-{[(1H-indazol-7-yl)methyl]amino}-N-[(3R)-7-(piperazin-1-yl)-3,4-dihydro-2H-1-benzopyran-3-yl]pyridine-3-carboxamide]",200 to 2000
3,"Cc1ccc2c(N)c(C(=O)N[C@H]3COc4cc(N5C[C@H](N)[C@@](C)(CF)C5)ccc4C3)sc2n1 [Example 659, 3-amino-N-[(3R)-7-[(3S,4R)-4-amino-3-(fluoromethyl)-3-methylpyrrolidin-1-yl]-3,4-dihydro-2H-1-benzopyran-3-yl]-6-methylthieno[2,3-b]pyridine-2-carboxamide]",50 to 200
4,"Cc1ccc2c(N)c(C(=O)N[C@H]3COc4cc(N5C[C@@H](N)[C@](C)(CF)C5)ccc4C3)sc2n1 [Example 661, 3-amino-N-[(3R)-7-[(3R,4S)-4-amino-3-(fluoromethyl)-3-methylpyrrolidin-1-yl]-3,4-dihydro-2H-1-benzopyran-3-yl]-6-methylthieno[2,3-b]pyridine-2-carboxamide]",50 to 200
5,"CO[C@@H]1CN(c2ccc3c(c2)OC[C@H](NC(=O)c2sc4nc(C)cnc4c2N)C3)C[C@@H]1N [Example 147, 7-amino-N-[(3R)-7-[(3S,4R)-3-amino-4-methoxypyrrolidin-1-yl]-3,4-dihydro-2H-1-benzopyran-3-yl]-3-methylthieno[2,3-b]pyrazine-6-carboxamide]",200 to 2000
6,"O=C(N[C@H]1COc2cc(N3CCNCC3)ccc2C1)c1ccc(NCc2ccc(Cl)cc2Cl)nc1 [Example 697, 6-{[(2,4-dichlorophenyl)methyl]amino}-N-[(3R)-7-(piperazin-1-yl)-3,4-dihydro-2H-1-benzopyran-3-yl]pyridine-3-carboxamide]",1 to 50
